The target of experiment [1] is T1, A-II-receptor (membrane fraction of bovine adrenal cortex) (Bos taurus, UniProt P25104).
T1 construct: prepared from the membrane fraction of bovine adrenal cortex; from tissue; host or cells: bovine adrenal cortex, membrane fraction
T1 sequence (P25104 1-359): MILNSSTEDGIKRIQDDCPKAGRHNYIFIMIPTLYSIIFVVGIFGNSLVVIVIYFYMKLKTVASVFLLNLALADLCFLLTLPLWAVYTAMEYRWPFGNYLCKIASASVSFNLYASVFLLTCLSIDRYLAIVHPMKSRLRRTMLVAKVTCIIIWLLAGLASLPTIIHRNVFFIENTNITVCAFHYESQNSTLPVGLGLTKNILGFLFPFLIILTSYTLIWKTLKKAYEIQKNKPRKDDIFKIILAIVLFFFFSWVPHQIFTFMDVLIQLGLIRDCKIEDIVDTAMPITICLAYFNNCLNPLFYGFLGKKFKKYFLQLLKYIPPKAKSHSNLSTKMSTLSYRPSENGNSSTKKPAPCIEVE
Description: Inhibition of binding of angiotensin-II to angiotensin receptor (radio receptor assay, 125I-A-II). The note with it: room temperature, one hour; for inhibition at 1 µM: 10^-6 M; for inhibition at 0.1 µM: 10^-7 M. As to the method:
An experiment of inhibition on the binding of angiotensin-II (A-II) to A-II-receptor was conducted by modifying the method of Douglas et al. [Endocrinology, 102, 685-696 (1978)]. An A-II-receptor was prepared from the membrane fraction of bovine adrenal cortex.
The compound of the present invention (10^-9 M to 3×10^-5 M) and ^125 I-A-II (1.85 kBq/50 μl) were added to the receptor membrane fraction, and the mixture was incubated at room temperature for one hour. The receptor-bound and free ^125 I-A-II were separated through a filter (Whatman GF/B filter), and the radioactivity of ^125 I-A-II bound to the receptor was measured.

The subject of experiment [2] is A-II-induced pressor action. Description: Inhibitory effect on pressor action of A-II (100 ng/kg i.v.) after oral administration. The note with it: Rattus norvegicus, 30 mg/kg p.o., SD rats, read-out: Pressor Response (30 mg/Kg, p.o.) (% Inhibition). It is filed as in vivo, Jcl: SD rats (9 week old, male). As to the method: Jcl: SD rats (9 week old, male) were used. On the day previous to the experiment, these animals were applied with cannulation into the femoral artery and vein under anesthesia with pentobarbital Na. The animals were fasted but allowed free access to drinking water until the experiment was started. Just on the day of conducting the experiment, the artery cannula was connected with a blood-pressure transducer, and the average blood pressure was recorded by means of polygraph. Before administration of the drug, the pressor action due to intravenous administration of A-II (100 ng/kg) as the control was measured. The drugs were orally administered, and then, at each point of the measurement, A-II was administered intravenously, and the pressor action was similarly measured. By comparing the pressor action before and after administration of the drug, the precent inhibition by the drug on A-II-induced pressor action was evaluated.

On to `CCCCc1nc(=O)c(C(=O)OCC)cn1Cc1ccc(-c2ccccc2-c2nnn[nH]2)cc1` [Working Example 11, Ethyl 2-n-butyl-4-oxo-1-[[2'-(1H-tetrazol-5-yl)biphenyl-4-yl]methyl]-1,4-dihydropyrimidine-5-carboxylate], for which, in experiment [1], the inhibition (in general, the percentage by which the read-out fell short of the control) at 1 µM amounted to 70% and the inhibition at 0.1 µM stood at 29%.

Turning to `CCCc1nc2ccc(OCC(=O)NCc3ccccc3)cc2c(=O)n1Cc1ccc(-c2ccccc2-c2nn[nH]n2)cc1` [Working Example 49], in experiment [1], the inhibition at 1 µM was found to be 88% and at 0.1 µM the inhibition was 63%.

In experiment [1], `CCCCc1nc2cc([N+](=O)[O-])ccc2c(=O)n1Cc1ccc(-c2ccccc2-c2nn[nH]n2)cc1` [Working Example 24] yielded an inhibition at 1 µM of 41% and an inhibition at 0.1 µM of 3%.

In experiment [1], `CCCCc1cc(=O)c(C(=O)OCC)cn1Cc1ccc(-c2ccccc2-c2nnn[nH]2)cc1` [Working Example 2, Ethyl 6-n-butyl-4-oxo-1-[[2'-(1H-tetrazol-5-yl)biphenyl-4-yl]methyl]-1,4-dihydronicotinate] registered an inhibition at 1 µM of 67% and an inhibition at 0.1 µM of 25%.

In experiment [1], `CCCCc1nc2ccccc2c(=O)n1Cc1ccc(-c2ccccc2-c2nnn[nH]2)cc1` [Working Example 23, 2-n-Butyl-3-[[2'-(1H-tetrazol-5-yl)biphenyl-4-yl]methyl]-4(3H)-quinazolinon] came in with an inhibition at 1 µM of 85% and an inhibition at 0.1 µM of 46%. Further, the inhibition in vivo at 30 mg/kg in experiment [2] is no less than 70%.

With `CCCCc1nc2cccc(COC)c2c(=O)n1Cc1ccc(-c2ccccc2-c2nn[nH]n2)cc1` [Working Example 50], in experiment [1], the inhibition at 1 µM stood at 95% and the inhibition at 0.1 µM came to 73%.

In experiment [1], `CCCCc1nc(COC)cc(=O)n1Cc1ccc(-c2ccccc2-c2nnn[nH]2)cc1` [Working Example 8, 2-n-Butyl-3-[[2'-(1H-tetrazol-5-yl)biphenyl-4-yl]methyl]-6-methoxymethyl-4(3H)-pyrimidone] gave an inhibition at 1 µM of 73% and an inhibition at 0.1 µM of 29%.

In experiment [1], `CCCCc1nc2ccc(OCCOC(C)=O)cc2c(=O)n1Cc1ccc(-c2ccccc2-c2nn[nH]n2)cc1` [Working Example 39] returned an inhibition at 1 µM of 92% and an inhibition at 0.1 µM of 69%. The inhibition in vivo at 30 mg/kg in experiment [2] was no less than 70%.

In the case of `CCCc1cc(=O)c(C(=O)OCC)cn1Cc1ccc(-c2ccccc2-c2nn[nH]n2)cc1` [Working Example 4], in experiment [1], the inhibition at 1 µM was found to be 72% and the inhibition at 0.1 µM is 31%.

On to `CCCCc1ncc(C(=O)OCC)c(=O)n1Cc1ccc(-c2ccccc2-c2nnn[nH]2)cc1` [Working Example 10, Ethyl 2-n-butyl-4-oxo-3-[[2'-(1H-tetrazol-5-yl)biphenyl-4-yl]methyl]-3,4-dihydropyrimidine-5-carboxylate], for which, in experiment [1], testing at 1 µM gave an inhibition of 75% and the inhibition at 0.1 µM was 32%.

Consider `CCCc1nc2ccc(OCCOC(=O)c3ccccc3)cc2c(=O)n1Cc1ccc(-c2ccccc2-c2nn[nH]n2)cc1` [Working Example 41], for which, in experiment [1], the inhibition at 1 µM came out at 83% and the inhibition at 0.1 µM was 48%. The inhibition in vivo at 30 mg/kg in experiment [2] is no less than 70%.

Regarding `CCCCc1nc2ccc(OCC(=O)OC)cc2c(=O)n1Cc1ccc(-c2ccccc2-c2nn[nH]n2)cc1` [Working Example 38], in experiment [1], testing at 1 µM gave an inhibition of 89% and 0.1 µM produced 59% inhibition. The inhibition in vivo at 30 mg/kg in experiment [2] was no less than 70%.

In experiment [1], `CCCCc1nc2cccc(COC(C)=O)c2c(=O)n1Cc1ccc(-c2ccccc2-c2nn[nH]n2)cc1` [Working Example 32] returned an inhibition at 1 µM of 93% and an inhibition at 0.1 µM of 72%. For the same molecule, in experiment [2], the inhibition in vivo at 30 mg/kg was no less than 70%.

Regarding `CCCCc1nc2ccc(OC)cc2c(=O)n1Cc1ccc(-c2ccccc2-c2nn[nH]n2)cc1` [Working Example 37], in experiment [1], testing at 1 µM gave an inhibition of 97% and the inhibition at 0.1 µM was 77%. Moreover, the inhibition in vivo at 30 mg/kg in experiment [2] is no less than 70%.

In experiment [1], `CCCCCc1cc(=O)c(C(=O)OCC)cn1Cc1ccc(-c2ccccc2-c2nn[nH]n2)cc1` [Working Example 3] had an inhibition at 1 µM of 71% and an inhibition at 0.1 µM of 28%.

In experiment [1], `CCCCc1nc(CC(=O)OC)cc(=O)n1Cc1ccc(-c2ccccc2-c2nnn[nH]2)cc1` [Working Example 16, 2-n-Butyl-6-methoxycarbonylmethyl-3-[[2'-(1H-tetrazol-5-yl)biphenyl-4-yl]methyl]-4(3H)-pyrimidone] returned an inhibition at 1 µM of 68% and an inhibition at 0.1 µM of 31%.

Turning to `CCCCc1cc(=O)c(C(=O)OCC)cn1Cc1ccc(-c2ccccc2C(=O)O)cc1` [Working Example 1, Ethyl 6-n-butyl-1-[(2'-carboxybiphenyl-4-yl)methyl]-4-oxo-1,4-dihydronicotinate], in experiment [1], at 1 µM the inhibition was 67% and at 0.1 µM the inhibition was 24%.

Take `CCCc1nc2ccc(OCC(=O)N3CCOCC3)cc2c(=O)n1Cc1ccc(-c2ccccc2-c2nn[nH]n2)cc1` [Working Example 48]: in experiment [1], at 1 µM the inhibition was 95% and 0.1 µM produced 81% inhibition.

In experiment [1], `CCCc1nc2ccc(OCCO)cc2c(=O)n1Cc1ccc(-c2ccccc2-c2nnn[nH]2)cc1` [Working Example 53, 6-(2-Hydroxyethyloxy)-2-propyl-3-[[2'-(1H-tetrazol-5-yl)biphenyl-4-yl]methyl]-4(3H)-quinazolinone] showed an inhibition at 1 µM of 92% and an inhibition at 0.1 µM of 76%. In experiment [2], the inhibition in vivo at 30 mg/kg was no less than 70%.

In experiment [1], `CCCCc1nc2cccc(CO)c2c(=O)n1Cc1ccc(-c2ccccc2-c2nnn[nH]2)cc1` [Working Example 54, 2-Butyl-5-hydroxymethyl-3-[[2'-(1H-tetrazol-5-yl)biphenyl-4-yl]methyl]-4(3H)-quinazolinone] gave an inhibition at 1 µM of 88% and an inhibition at 0.1 µM of 74%. Further, the inhibition in vivo at 30 mg/kg in experiment [2] is no less than 70%.

For `CCCCc1ncc([N+](=O)[O-])c(=O)n1Cc1ccc(-c2ccccc2-c2nn[nH]n2)cc1` [Working Example 13, 2-n-Butyl-5-nitro-3-[[2'-(1H-tetrazol-5-yl)biphenyl-4-yl-]methyl]-4(3H)-pyrimidone], in experiment [1], the inhibition at 1 µM turned out to be 73% and the inhibition at 0.1 µM was 30%.

In experiment [1], `CCCCc1nc2ccc(OCCO)cc2c(=O)n1Cc1ccc(-c2ccccc2-c2nnn[nH]2)cc1` [Working Example 55, 2-Butyl-6-(2-hydroxyethyloxy)-3-[[2'-(1H-tetrazol-5-yl)biphenyl-4-yl]-methyl]-4(3H)-quinazolinone] returned an inhibition at 1 µM of 94% and an inhibition at 0.1 µM of 75%. Besides, in experiment [2], the inhibition in vivo at 30 mg/kg was no less than 70%.

In experiment [1], `CCCCC(=O)Oc1ccc2nc(CCCC)n(Cc3ccc(-c4ccccc4-c4nn[nH]n4)cc3)c(=O)c2c1` [Working Example 29] yielded an inhibition at 1 µM of 92% and an inhibition at 0.1 µM of 66%. The inhibition in vivo at 30 mg/kg in experiment [2] was no less than 70%.

In experiment [1], `CCCCc1nc2cccc(C)c2c(=O)n1Cc1ccc(-c2ccccc2-c2nn[nH]n2)cc1` [Working Example 26] came in with an inhibition at 1 µM of 74% and an inhibition at 0.1 µM of 36%. Further, the inhibition in vivo at 30 mg/kg in experiment [2] was no less than 70%.

In experiment [1], `CCCCc1nc2cc(Cl)ccc2c(=O)n1Cc1ccc(-c2ccccc2-c2nn[nH]n2)cc1` [Working Example 25] had an inhibition at 1 µM of 58% and an inhibition at 0.1 µM of 18%.

These data come from patent US5304565A, “Nitrogen containing heterocyclic compounds, their production and use” (Takeda Chemical Industries, Ltd., priority 1990, dated 1994).
